Read-outs that look alike come from different tables or passages of the source. Marks after values point to notes of the source that are not given here. Non-standard residues stand in square brackets, D forms with d. Residues, ends and D or L forms follow the SMILES beside them. *: point of attachment. Dolaproine = CO[C@@H]([C@@H]1CCCN1)[C@@H](C)C(=O)O; Dil = CC[C@H](C)[C@H](NC)[C@@H](CC(=O)O)OC; X1 = C[C@@H](N*)[C@@H](O)c1ccccc1; NMeV = CN[C@H](C(=O)O)C(C)C
Experiments:
[1] = Pharmacokinetics of teliso‐v conjugate and MMAE, noncompartmental; assay type: in vivo, human; conditions: for AUCtau, MMAE / Cmax, MMAE: geometric mean (%CV); for t1/2, MMAE: harmonic mean (min-max); for Tmax, MMAE: median (min-max)
Method: PK samples were also collected on cycles 2 and 4 predose and approximately 30 minutes after the end of infusion on day 1. PK parameters such as peak concentration (Cmax), time to peak concentration, area under the concentration‐time curve (AUC), and terminal half‐life (t1/2) were determined using noncompartmental methods.

[2] = system: CD30‐positive Hodgkin lymphoma or systemic anaplastic large cell lymphoma; parameters: method as in PMID 24814862; conditions: US and Japanese patients; cited from earlier work
[3] = system: MET exon 14‐mutated NSCLC; parameters: method as in earlier work; conditions: cited from earlier work
[4] = cycle 1, after teliso-v 2.4 mg/kg IV, n = 3
[5] = cycle 1, after teliso-v 2.7 mg/kg IV, n = 6

## CC[C@H](C)[C@@H]([C@@H](CC(=O)N1CCC[C@H]1[C@H](OC)[C@@H](C)C(=O)N[C@H](C)[C@@H](O)c1ccccc1)OC)N(C)C(=O)[C@@H](NC(=O)[C@@H](NC)C(C)C)C(C)C [MMAE, monomethyl auristatin E] (H-[NMeV]V[Dil][Dolaproine]-X1)
[1]; N = 9, both dose levels
  t1/2: 96 to 140 h
[1]; [4]
  AUCtau, MMAE: 535 (7) ng*h/mL
  Cmax, MMAE: 1.69 (10) ng/mL
  t1/2, MMAE: 5.80 (4.5–7.8) days
  Tmax, MMAE: 168.5 (72.5–168.5) h
[1]; cycle 1, after teliso-v 2.7 mg/kg IV, N = 4
  t1/2, MMAE: 4.01 (3–5.6)^c days
[1]; [5]
  AUCtau, MMAE: 764 (78) ng*h/mL
  Cmax, MMAE: 2.80 (77) ng/mL
  Tmax, MMAE: 168.5 (72.5–168.5) h
[1]; first dose of teliso‐v, cycle 1, across 2.4 and 2.7 mg/kg
  Plasma Cmax, preliminary geometric mean: 1.69 to 2.80 ng/mL
[1]; multiple dosing Q3 W
  Accumulation in cycle 3: 1.1–1.2 fold

## brentuximab vedotin
[2]
  Ethnic differences in PK: no remarkable ethnic differences in PK were found

## CNC(=O)c1ccc(-c2cnc3ncc(Cc4ccc5ncccc5c4)n3n2)cc1F [capmatinib]
[3]; one to two prior lines of treatment
  ORR: 39.1%
[3]; treatment‐naive patients
  ORR: 71.4%

From paper PMC7982615, “Phase 1 study of telisotuzumab vedotin in Japanese patients with advanced solid tumors” (Cancer Medicine, 2021)
